For assay [1], the target named is Ras-related C3 botulinum toxin substrate 1 (Homo sapiens, UniProt P63000).
The target of assay [2] is Serine/threonine-protein kinase 38 (Homo sapiens, UniProt Q15208).
The target in assay [3] is Cyclin-dependent kinase 18 (Homo sapiens, UniProt Q07002).
For assay [4], the target named is Dual specificity tyrosine-phosphorylation-regulated kinase 1B (Homo sapiens, UniProt Q9Y463).
In assay [5] the target is Tyrosine-protein kinase Fgr (Homo sapiens, UniProt P09769).
In assay [6] the target is T1, Dual specificity mitogen-activated protein kinase kinase 4 (Homo sapiens, UniProt P45985).
T1 sequence (P45985 whole entry): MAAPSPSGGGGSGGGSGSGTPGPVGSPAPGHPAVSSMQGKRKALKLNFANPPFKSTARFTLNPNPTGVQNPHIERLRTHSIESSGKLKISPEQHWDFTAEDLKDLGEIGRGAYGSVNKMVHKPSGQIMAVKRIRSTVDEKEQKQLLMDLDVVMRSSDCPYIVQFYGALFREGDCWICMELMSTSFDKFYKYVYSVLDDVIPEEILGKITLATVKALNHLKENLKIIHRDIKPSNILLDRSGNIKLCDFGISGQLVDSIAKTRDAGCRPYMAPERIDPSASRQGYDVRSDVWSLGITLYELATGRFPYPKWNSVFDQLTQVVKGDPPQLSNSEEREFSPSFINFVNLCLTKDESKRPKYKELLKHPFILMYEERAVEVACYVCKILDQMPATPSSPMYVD

Assay [7] deals with T2, Tyrosine-protein kinase Mer (Homo sapiens, UniProt Q12866).
T2 sequence (Q12866 whole entry): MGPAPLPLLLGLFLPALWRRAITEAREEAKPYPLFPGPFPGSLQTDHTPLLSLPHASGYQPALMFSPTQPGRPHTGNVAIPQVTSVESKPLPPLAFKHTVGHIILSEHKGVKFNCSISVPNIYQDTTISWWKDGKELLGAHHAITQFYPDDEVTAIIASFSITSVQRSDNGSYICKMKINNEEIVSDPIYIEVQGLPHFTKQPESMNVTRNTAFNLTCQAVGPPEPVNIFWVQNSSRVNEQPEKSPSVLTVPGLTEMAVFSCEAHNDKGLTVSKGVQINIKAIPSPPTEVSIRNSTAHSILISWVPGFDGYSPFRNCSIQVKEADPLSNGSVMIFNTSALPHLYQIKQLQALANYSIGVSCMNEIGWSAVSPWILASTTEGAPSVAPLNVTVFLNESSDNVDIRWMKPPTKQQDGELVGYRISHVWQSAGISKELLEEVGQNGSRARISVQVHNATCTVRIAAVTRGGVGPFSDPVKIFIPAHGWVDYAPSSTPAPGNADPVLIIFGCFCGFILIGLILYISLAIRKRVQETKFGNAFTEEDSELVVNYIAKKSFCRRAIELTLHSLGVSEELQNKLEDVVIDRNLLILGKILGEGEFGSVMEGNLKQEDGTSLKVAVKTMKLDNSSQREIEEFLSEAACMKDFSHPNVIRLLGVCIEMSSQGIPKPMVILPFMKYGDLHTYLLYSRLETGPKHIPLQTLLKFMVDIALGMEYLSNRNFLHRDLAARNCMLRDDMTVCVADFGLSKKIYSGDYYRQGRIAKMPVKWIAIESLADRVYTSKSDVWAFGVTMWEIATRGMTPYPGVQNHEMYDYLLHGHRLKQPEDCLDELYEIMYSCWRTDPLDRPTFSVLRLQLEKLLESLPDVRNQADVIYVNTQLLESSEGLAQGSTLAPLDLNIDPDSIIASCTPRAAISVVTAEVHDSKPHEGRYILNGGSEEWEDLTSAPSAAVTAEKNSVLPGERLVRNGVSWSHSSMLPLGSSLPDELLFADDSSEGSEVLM

Assay [8] has as its target Serine/threonine-protein kinase PLK1 (Homo sapiens, UniProt P53350).
Assay [9] concerns the target Serine/threonine-protein kinase 38-like (Homo sapiens, UniProt Q9Y2H1).
Assay [10] has as its target 5'-AMP-activated protein kinase subunit gamma-1 (Homo sapiens, UniProt P54619).
Assay [11] concerns the target T3, Uncharacterized protein FLJ45252 (Homo sapiens, UniProt Q6ZSR9).
T3 sequence (Q6ZSR9 whole entry): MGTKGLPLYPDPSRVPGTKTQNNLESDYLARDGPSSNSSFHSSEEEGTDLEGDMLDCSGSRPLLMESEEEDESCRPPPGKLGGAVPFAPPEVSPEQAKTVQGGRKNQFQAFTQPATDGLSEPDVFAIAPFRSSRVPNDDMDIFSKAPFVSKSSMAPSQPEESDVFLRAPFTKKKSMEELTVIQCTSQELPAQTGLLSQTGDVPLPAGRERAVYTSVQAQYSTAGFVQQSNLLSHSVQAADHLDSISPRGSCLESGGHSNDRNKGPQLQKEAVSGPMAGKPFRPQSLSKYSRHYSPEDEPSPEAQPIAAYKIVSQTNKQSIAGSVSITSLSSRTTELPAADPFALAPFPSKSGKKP

Assay [12] deals with ALK tyrosine kinase receptor (Homo sapiens, UniProt Q9UM73). In kind it is subcellular, K-562, COLO 205, SK-N-BE(2) and MV-4-11, Cell lysate. Conditions: read-out: Kd apparent.
The target in assay [13] is Tyrosine-protein kinase JAK2 (Homo sapiens, UniProt O60674).
Assay [14] concerns the target Eukaryotic peptide chain release factor GTP-binding subunit ERF3B (Homo sapiens, UniProt Q8IYD1).
In assay [15] the target is Nucleoside diphosphate kinase B (Homo sapiens, UniProt P22392).
The target of assay [16] is Putative nucleoside diphosphate kinase (Homo sapiens, UniProt O60361).
For assay [17], the target named is Cyclin-dependent kinase 10 (Homo sapiens, UniProt Q15131).

Activity calls are given as the source filed them. Where only a bound is given, the exact number is not on record here.
Further: in the data inactive means no Kd found up to 30 µM.

Sequence of Tyrosine-protein kinase Fgr (P09769 whole entry): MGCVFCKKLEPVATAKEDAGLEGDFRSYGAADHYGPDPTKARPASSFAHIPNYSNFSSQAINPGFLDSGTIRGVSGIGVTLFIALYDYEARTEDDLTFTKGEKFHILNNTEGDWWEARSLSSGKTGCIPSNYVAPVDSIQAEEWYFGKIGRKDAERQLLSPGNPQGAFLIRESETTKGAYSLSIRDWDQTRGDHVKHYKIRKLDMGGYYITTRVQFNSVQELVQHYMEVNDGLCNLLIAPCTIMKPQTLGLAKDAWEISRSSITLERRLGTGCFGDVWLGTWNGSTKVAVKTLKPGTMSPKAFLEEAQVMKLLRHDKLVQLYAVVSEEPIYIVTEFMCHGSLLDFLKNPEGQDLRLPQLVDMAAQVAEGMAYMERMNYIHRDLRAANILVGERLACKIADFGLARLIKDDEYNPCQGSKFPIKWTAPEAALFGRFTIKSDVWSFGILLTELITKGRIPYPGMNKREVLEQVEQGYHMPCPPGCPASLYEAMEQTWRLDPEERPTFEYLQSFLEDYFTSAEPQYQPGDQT
Sequence of Eukaryotic peptide chain release factor GTP-binding subunit ERF3B (Q8IYD1 whole entry): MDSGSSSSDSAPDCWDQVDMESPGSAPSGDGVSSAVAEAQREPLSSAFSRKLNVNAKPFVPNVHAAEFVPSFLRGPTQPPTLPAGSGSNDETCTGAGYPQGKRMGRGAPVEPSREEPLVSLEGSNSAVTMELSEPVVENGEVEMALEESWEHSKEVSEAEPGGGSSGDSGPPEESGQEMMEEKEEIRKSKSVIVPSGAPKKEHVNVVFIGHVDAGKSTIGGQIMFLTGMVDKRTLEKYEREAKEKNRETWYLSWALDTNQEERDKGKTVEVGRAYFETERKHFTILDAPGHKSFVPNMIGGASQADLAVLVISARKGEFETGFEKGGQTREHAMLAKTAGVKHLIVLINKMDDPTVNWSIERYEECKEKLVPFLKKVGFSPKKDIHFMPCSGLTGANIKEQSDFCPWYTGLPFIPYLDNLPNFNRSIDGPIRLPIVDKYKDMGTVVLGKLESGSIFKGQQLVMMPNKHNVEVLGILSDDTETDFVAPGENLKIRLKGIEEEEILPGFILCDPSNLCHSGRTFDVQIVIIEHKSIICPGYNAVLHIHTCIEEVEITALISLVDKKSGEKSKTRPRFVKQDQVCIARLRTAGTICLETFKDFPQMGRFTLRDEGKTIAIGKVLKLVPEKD
Sequence of Serine/threonine-protein kinase 38 (Q15208 whole entry): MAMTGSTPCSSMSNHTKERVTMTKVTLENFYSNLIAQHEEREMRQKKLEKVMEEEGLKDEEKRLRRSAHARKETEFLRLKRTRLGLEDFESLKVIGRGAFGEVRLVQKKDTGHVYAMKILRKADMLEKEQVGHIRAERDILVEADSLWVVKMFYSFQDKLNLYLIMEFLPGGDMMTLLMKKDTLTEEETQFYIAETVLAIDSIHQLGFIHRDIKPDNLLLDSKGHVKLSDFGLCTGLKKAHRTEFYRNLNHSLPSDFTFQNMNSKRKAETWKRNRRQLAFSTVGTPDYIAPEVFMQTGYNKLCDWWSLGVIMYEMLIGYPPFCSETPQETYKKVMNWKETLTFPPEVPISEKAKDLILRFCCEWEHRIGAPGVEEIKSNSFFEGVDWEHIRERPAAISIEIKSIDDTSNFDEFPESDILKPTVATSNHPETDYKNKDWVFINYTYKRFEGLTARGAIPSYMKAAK
Sequence of Nucleoside diphosphate kinase B (P22392 whole entry): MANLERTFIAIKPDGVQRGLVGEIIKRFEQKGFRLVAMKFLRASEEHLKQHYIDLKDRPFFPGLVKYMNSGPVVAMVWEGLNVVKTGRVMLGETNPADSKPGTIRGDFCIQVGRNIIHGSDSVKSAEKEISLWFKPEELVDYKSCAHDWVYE
Sequence of Tyrosine-protein kinase JAK2 (O60674 whole entry): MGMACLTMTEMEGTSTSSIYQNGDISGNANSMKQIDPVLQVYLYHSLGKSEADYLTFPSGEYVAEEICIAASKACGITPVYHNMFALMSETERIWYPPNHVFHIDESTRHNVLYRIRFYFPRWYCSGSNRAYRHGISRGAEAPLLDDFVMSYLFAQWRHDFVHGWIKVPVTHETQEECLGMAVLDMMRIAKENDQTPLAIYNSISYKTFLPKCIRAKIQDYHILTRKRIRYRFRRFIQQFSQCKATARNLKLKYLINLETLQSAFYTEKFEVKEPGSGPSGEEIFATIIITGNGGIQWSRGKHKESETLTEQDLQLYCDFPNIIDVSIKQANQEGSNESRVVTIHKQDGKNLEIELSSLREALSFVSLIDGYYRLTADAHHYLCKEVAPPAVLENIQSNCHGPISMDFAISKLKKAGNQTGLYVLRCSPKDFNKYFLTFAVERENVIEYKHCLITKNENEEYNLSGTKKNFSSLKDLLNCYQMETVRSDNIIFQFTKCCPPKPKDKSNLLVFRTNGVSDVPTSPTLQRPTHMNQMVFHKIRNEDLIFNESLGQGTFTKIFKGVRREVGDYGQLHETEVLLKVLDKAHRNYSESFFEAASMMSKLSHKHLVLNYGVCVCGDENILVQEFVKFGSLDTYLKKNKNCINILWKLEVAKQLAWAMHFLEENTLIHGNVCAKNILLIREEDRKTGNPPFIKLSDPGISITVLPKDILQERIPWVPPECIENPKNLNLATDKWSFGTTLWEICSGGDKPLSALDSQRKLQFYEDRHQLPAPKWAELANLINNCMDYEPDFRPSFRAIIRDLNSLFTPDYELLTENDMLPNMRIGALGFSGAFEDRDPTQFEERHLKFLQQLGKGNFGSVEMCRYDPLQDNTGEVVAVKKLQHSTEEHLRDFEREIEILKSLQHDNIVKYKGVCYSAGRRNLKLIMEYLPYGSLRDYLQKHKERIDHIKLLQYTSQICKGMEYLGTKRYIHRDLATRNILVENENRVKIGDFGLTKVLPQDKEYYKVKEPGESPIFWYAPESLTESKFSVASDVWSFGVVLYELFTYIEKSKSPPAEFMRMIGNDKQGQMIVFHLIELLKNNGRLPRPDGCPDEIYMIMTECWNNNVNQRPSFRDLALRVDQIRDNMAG
Sequence of Cyclin-dependent kinase 10 (Q15131 whole entry): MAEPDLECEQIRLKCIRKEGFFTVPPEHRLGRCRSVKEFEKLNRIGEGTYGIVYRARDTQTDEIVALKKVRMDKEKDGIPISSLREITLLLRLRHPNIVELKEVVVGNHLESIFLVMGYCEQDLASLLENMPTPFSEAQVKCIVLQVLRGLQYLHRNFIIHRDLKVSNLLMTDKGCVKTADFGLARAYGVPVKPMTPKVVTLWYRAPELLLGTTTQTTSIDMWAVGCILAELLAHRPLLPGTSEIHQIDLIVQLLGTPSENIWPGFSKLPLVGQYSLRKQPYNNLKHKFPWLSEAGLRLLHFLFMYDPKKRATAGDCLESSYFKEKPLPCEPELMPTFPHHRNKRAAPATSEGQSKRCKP
Sequence of Serine/threonine-protein kinase 38-like (Q9Y2H1 whole entry): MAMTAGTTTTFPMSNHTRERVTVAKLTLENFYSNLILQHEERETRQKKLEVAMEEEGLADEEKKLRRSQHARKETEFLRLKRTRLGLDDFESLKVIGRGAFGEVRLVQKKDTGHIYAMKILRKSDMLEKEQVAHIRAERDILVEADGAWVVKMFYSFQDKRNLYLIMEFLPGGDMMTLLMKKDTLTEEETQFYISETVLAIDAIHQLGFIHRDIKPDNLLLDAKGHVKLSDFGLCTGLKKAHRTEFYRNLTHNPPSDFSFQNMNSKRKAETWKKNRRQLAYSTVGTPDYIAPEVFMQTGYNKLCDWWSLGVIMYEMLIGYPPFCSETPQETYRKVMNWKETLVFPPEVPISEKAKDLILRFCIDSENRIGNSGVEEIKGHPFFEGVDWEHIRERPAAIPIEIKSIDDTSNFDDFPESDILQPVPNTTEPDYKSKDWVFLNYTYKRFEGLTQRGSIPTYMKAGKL
Sequence of Serine/threonine-protein kinase PLK1 (P53350 whole entry): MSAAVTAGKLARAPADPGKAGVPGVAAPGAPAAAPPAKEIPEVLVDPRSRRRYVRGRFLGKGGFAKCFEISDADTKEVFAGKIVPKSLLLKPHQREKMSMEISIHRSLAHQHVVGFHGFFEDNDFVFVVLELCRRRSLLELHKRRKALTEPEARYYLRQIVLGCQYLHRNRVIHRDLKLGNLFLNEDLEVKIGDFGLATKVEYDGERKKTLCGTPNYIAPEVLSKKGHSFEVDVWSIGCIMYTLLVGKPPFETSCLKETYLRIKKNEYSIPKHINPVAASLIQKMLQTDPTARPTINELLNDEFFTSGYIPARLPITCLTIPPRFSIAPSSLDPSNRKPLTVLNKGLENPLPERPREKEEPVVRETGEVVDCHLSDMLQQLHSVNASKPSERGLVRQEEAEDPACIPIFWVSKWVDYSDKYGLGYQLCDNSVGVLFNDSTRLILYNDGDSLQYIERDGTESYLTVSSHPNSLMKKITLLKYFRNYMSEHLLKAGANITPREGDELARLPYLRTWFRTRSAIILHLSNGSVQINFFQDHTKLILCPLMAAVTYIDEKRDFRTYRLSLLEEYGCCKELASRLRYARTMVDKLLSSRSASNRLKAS
Sequence of Dual specificity tyrosine-phosphorylation-regulated kinase 1B (Q9Y463 whole entry): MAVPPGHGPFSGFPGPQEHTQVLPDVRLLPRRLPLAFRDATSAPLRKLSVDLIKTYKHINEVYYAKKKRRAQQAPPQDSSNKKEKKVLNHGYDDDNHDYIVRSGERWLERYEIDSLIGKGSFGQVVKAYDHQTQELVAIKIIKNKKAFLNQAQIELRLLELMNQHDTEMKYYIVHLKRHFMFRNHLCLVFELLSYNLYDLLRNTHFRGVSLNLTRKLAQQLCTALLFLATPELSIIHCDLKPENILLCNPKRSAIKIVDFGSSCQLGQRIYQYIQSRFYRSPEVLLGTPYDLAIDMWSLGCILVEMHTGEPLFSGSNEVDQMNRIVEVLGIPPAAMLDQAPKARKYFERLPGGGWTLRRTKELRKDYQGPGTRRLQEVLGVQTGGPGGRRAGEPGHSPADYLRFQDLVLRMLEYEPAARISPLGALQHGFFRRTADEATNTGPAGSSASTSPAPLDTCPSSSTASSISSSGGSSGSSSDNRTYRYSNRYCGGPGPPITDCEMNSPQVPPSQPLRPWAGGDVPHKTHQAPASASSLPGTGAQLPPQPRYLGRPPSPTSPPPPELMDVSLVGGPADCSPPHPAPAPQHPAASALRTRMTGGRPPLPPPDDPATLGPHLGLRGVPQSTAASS

For `CCc1nc(C(N)=O)c(Nc2ccc(N3CCC(N4CCN(C)CC4)CC3)c(OC)c2)nc1NC1CCOCC1` [GILTERITINIB], the Kd in assay [1] and in [2] was > 30 µM (inactive) each time.

Turning to `C#Cc1cccc(Nc2ncnc3cc4c(cc23)OCCOCCOCCO4)c1` [ICOTINIB], the Kd in assay [3], in assay [4], in assay [5], in assay [6], in assay [7] and in [8] was > 30 µM (inactive) each time. Besides, the Kd in assay [2] is > 30 µM (inactive).

Consider `C=CCn1c(=O)c2cnc(Nc3ccc(N4CCN(C)CC4)cc3)nc2n1-c1cccc(C(C)(C)O)n1` [ADAVOSERTIB], for which the Kd in assay [3], in assay [7], in assay [8], in assay [2] and in [9] was > 30 µM (inactive) in each case.

With `COc1cc(F)c(F)c(Nc2ccc(I)cc2F)c1NS(=O)(=O)C1(C[C@H](O)CO)CC1` [REFAMETINIB], the Kd in [1], in assay [2] and in assay [9] was > 30 µM (inactive) in each case.

On to `CCOc1ccn(-c2ccc(F)cc2)c(=O)c1C(=O)Nc1ccc(Oc2ccnc(N)c2Cl)c(F)c1` [BMS-777607], for which the Kd in assay [10], in [11] and in assay [9] was > 30 µM (inactive) in each case.

`O[C@H]1CC[C@H](Nc2ncc3nc(Nc4c(F)cc(F)cc4F)n([C@H]4CCOC4)c3n2)CC1` [TANZISERTIB]: the Kd in assay [12], in assay [4], in [7] and in [9] was > 30 µM (inactive) each time.

As to `CNC(=O)c1cccc(-c2ccc3c(N4CCOC[C@@H]4C)nc(N4CCOC[C@@H]4C)nc3n2)c1` [VISTUSERTIB], the Kd in [4], in assay [5], in assay [13], in assay [7], in [8] and in assay [2] was > 30 µM (inactive) throughout. Also, in [9], the Kd is > 30 µM (inactive).

As for `O=S(=O)(c1cccc2cnccc12)N1CCCNCC1` [FASUDIL], the Kd in assay [5], in [14] and in assay [1] was > 30 µM (inactive) throughout.

For the compound `NC(=O)c1ccc(N(C(N)=O)c2c(F)cccc2F)nc1-c1ccc(F)cc1F` [VX-702], the Kd in assay [12] was 0.002 µM; in assay [6] it was > 30 µM (inactive); in assay [15], > 30 µM (inactive); in assay [16] it was > 30 µM (inactive); in assay [8] it was > 30 µM (inactive); in [2], > 30 µM (inactive). Also, the Kd in assay [9] was > 30 µM (inactive).

Regarding `O=C(Nc1ccc(OC(F)(F)F)cc1)c1sccc1NCc1ccnc2ccccc12` [OSI-930], the Kd in assay [17], in [3], in [5], in [7] and in [8] was > 30 µM (inactive) in each case.

As for `CNC(=O)c1ccc(Nc2ncc(C(F)(F)F)c(NCc3nccnc3N(C)S(C)(=O)=O)n2)cc1` [DEFACTINIB], the Kd in [3] and in assay [4] was > 30 µM (inactive) throughout.

On to `c1cc(OCCN2CCCCC2)cc(-c2n[nH]c3ccc(-c4nc[nH]n4)cc23)c1` [CC-401], for which the Kd in assay [3], in assay [7] and in [9] was > 30 µM (inactive) throughout.

Take `Cc1c(Cn2c(C)nc3c(C(=O)O)cc(N4CCOCC4)cc32)cccc1C(F)(F)F` [GSK-2636771]: the Kd in assay [17], in [3], in assay [6] and in [1] was > 30 µM (inactive) in each case.

With `Cn1c(=O)c(F)c(Nc2ccc(I)cc2F)c2c(=O)n(C[C@@H](O)CO)cnc21` [TAK-733], the Kd in assay [13], in assay [6], in assay [15] and in [2] was > 30 µM (inactive) in each case.

In the case of `CC(C)(O)CC(=O)NCCn1ccc2ncnc(Nc3ccc(Oc4cccc(C(F)(F)F)c4)c(Cl)c3)c21` [TAK-285], the Kd in assay [3], in assay [6] and in assay [2] was > 30 µM (inactive) each time.

As to `CCc1cc2c(cc1N1CCC(N3CCOCC3)CC1)C(C)(C)c1[nH]c3cc(C#N)ccc3c1C2=O` [ALECTINIB], the Kd in assay [17], in [3], in assay [4], in assay [5], in assay [14] and in [7] was > 30 µM (inactive) throughout. In addition, the Kd in [8] was > 30 µM (inactive).

For `CN1CCN(c2nc(C3=C(c4c[nH]c5ccccc45)C(=O)NC3=O)c3ccccc3n2)CC1` [SOTRASTAURIN], the Kd in assay [12], in [17], in assay [7], in [1] and in assay [9] was > 30 µM (inactive) throughout.

As for `COc1ccc2c(OCc3nnc4ccc(-c5ccccc5)nn34)ccnc2c1` [AMG-208], the Kd in [4], in assay [5], in assay [13], in assay [6], in assay [7] and in assay [9] was > 30 µM (inactive) throughout.

With `CN(c1ncccc1CNc1nc(Nc2ccc3c(c2)CC(=O)N3)ncc1C(F)(F)F)S(C)(=O)=O` [PF-00562271], the Kd in [17] is > 30 µM (inactive); in [15] it was > 30 µM (inactive); in [16], 0.862 µM.

Turning to `COc1cc2nccc(Oc3ccc(NC(=O)C4(C(=O)Nc5ccc(F)cc5)CC4)cc3)c2cc1OC` [CABOZANTINIB], the Kd in [12], in assay [4], in [14], in assay [13] and in [8] was > 30 µM (inactive) in each case.

In the case of `NC[C@@](O)(c1ccc(Cl)cc1)c1ccc(-c2cn[nH]c2)cc1` [AT-13148], the Kd in assay [5], in assay [14], in assay [1] and in assay [2] was > 30 µM (inactive) each time.
